Laboratory results published in US8921555B2, “Substituted-1,3,8-triazaspiro[4.5]decane-2,4-diones” (Merck Sharp & Dohme Corp., priority 2009, dated 2014).

molecular target: T1, HIF-PHD2 (Homo sapiens, UniProt Q9GZT9); assay: Assay for HIF-PHD2 Catalytic Activity (PHD2 Binding Activity); type: biochemical; conditions: not given
T1 construct: FLAG-tagged full length PHD2 expressed in and purified from baculovirus-infected Sf9 cells; FLAG; made in house; host or cells: baculovirus-infected Sf9 cells
T1 sequence (Q9GZT9 whole entry): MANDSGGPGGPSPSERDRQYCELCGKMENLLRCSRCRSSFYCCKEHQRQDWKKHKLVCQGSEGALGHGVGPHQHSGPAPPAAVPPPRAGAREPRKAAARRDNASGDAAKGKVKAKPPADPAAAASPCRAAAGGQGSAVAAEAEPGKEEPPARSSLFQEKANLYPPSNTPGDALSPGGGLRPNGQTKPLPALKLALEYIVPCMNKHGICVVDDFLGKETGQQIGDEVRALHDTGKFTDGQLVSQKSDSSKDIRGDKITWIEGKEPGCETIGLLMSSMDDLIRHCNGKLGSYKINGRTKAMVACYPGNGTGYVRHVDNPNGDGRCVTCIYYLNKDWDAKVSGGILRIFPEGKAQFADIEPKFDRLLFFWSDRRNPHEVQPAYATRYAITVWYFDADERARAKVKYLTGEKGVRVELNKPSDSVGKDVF

Question: For Cc1cccnc1CN1CCC2(CC1)C(=O)N(c1ccc(-c3ccccc3)cc1)C(=O)N2c1cnc(O)cn1 [Compound 1-45, 3-biphenyl-4-yl-1-(5-hydroxypyrazin-2-yl)-8-[(3-methylpyridin-2-yl)methyl]-1,3,8-triazaspiro[4.5]decane-2,4-dione], which IC50 is on record?
Answer: 20 to 50 nM

Question: With CCCCOC(=O)c1[nH]cnc1CN1CCC2(CC1)C(=O)N(c1ccc(-c3ccccc3)cc1)C(=O)N2c1nccc(O)n1 [Compound 1-46, Butyl 4-{[3-biphenyl-4-yl-1-(4-hydroxypyrimidin-2-yl)-2,4-dioxo-1,3,8-triazaspiro[4.5]dec-8-yl]methyl}-1-H-imidazole-5-carboxylate] as the compound, how does the IC50 read?
Answer: 20 to 50 nM

Question: With CCCCOC(=O)c1[nH]cnc1CN1CCC2(CC1)C(=O)N(c1ccc(-c3ccccc3)cc1)C(=O)N2c1nccc(OC)n1 [Compound 1-47, Butyl 4-{[3-biphenyl-4-yl-1-(4-methoxypyrimidin-2-yl)-2,4-dioxo-1,3,8-triazaspiro[4.5]dec-8-yl]methyl}-1-H-imidazole-5-carboxylate] as the compound, how does the IC50 read?
Answer: 20 to 50 nM

Question: CCCCOC(=O)c1[nH]cnc1CN1CCC2(CC1)C(=O)N(c1ccc(-c3ccccc3)cc1)C(=O)N2c1cc(OC)ncn1 [Compound 1-48, Butyl 4-{[3-biphenyl-4-yl-1-(6-methoxypyrimidin-4-yl)-2,4-dioxo-1,3,8-triazaspiro[4.5]dec-8-yl]methyl}-1-H-imidazole-5-carboxylate] was tested. Which IC50 did it give?
Answer: 0.5 to 20 nM

Question: COc1ccnc(N2C(=O)N(c3ccc(-c4ccccc4)cc3)C(=O)C23CCN(Cc2nc[nH]c2C)CC3)n1 [Compound 1-49, 3-biphenyl-4-yl-1-(4-methoxypyrimidin-2-yl)-8-[(5-methyl-1-H-imidazol-4-yl)methyl]-1,3,8-triazaspiro[4.5]decane-2,4-dione] was tested. Which IC50 did it give?
Answer: 0.5 to 20 nM

Question: Which IC50 does the source give for O=C(O)c1[nH]cnc1CN1CCC2(CC1)C(=O)N(c1ccc(-c3ccccc3)cc1)C(=O)N2c1nccc(O)n1 [Compound 1-50] here?
Answer: 20 to 50 nM

Question: How did the IC50 turn out when O=C(O)c1[nH]cnc1CN1CCC2(CC1)C(=O)N(c1ccc(-c3ccccc3)cc1)C(=O)N2c1cc(O)ncn1 [Compound 1-52, 4-{[3-biphenyl-4-yl-1-(6-hydroxypyrimidin-4-yl)-2,4-dioxo-1,3,8-triazaspiro[4.5]dec-8-yl]methyl}-1-H-imidazole-5-carboxylic acid] was run?
Answer: 0.5 to 20 nM

Question: Which IC50 does the source give for Cc1[nH]cnc1CN1CCC2(CC1)C(=O)N(c1ccc(-c3ccccc3)cc1)C(=O)N2c1cc(O)ncn1 [Compound 1-53, 3-biphenyl-4-yl-1-(6-hydroxypyrimidin-4-yl)-8-[(5-methyl-1-H-imidazol-4-yl)methyl]-1,3,8-triazaspiro[4.5]decane-2,4-dione] here?
Answer: 0.5 to 20 nM

Question: For Cc1cccnc1CN1CCC2(CC1)C(=O)N(c1ccc(-c3ccccc3)cc1)C(=O)N2c1nc(O)cc(O)n1 [Compound 1-55, 3-biphenyl-4-yl-1-(4,6-dihydroxypyrimidin-2-yl)-8-[(3-methylpyridin-2-yl)methyl]-1,3,8-triazaspiro[4.5]decane-2,4-dione], which IC50 is on record?
Answer: 0.5 to 20 nM

Question: Which IC50 does the source give for COc1cc(O)nc(N2C(=O)N(c3ccc(-c4ccccc4)cc3)C(=O)C23CCN(Cc2ncccc2C)CC3)n1 [Compound 1-56, 3-biphenyl-4-yl-1-(4-hydroxy-6-methoxypyrimidin-2-yl)-8-[(3-methylpyridin-2-yl)methyl]-1,3,8-triazaspiro[4.5]decane-2,4-dione] here?
Answer: 0.5 to 20 nM

Question: Which IC50 does the source give for COc1cc(OC)nc(N2C(=O)N(c3ccc(-c4ccccc4)cc3)C(=O)C23CCN(Cc2ncccc2C)CC3)n1 [Compound 1-57, 3-biphenyl-4-yl-1-(4,6-dimethoxypyrimidin-2-yl)-8-[(3-methylpyridin-2-yl)methyl]-1,3,8-triazaspiro[4.5]decane-2,4-dione] here?
Answer: 0.5 to 20 nM

Question: With Cc1cccnc1CN1CCC2(CC1)C(=O)N(c1ccc(-c3ccccc3)cc1)C(=O)N2c1ccnc(O)c1 [Compound 1-58, 3-biphenyl-4-yl-1-(2-hydroxypyridin-4-yl)-8-[(3-methylpyridin-2-yl)methyl]-1,3,8-triazaspiro[4.5]decane-2,4-dione] as the compound, how does the IC50 read?
Answer: 0.5 to 20 nM

Question: For Cc1cccnc1CN1CCC2(CC1)C(=O)N(c1ccc(-c3ccccc3)cc1)C(=O)N2c1nccc(C(=O)O)n1 [Compound 1-59, 2-{3-biphenyl-4-yl-8-[(3-methylpyridin-2-yl)methyl]-2,4-dioxo-1,3,8-triazaspiro[4.5]dec-1-yl}pyrimidine-4-carboxylic acid], which IC50 is on record?
Answer: 0.5 to 20 nM

Question: With COC(=O)c1ccc(-c2ccc(N3C(=O)N(c4ncccn4)C4(CCN(Cc5ncccc5C)CC4)C3=O)cc2)cc1 [Compound 1-61, Methyl 4′-{8-[(3-methylpyridin-2-yl)methyl]-2,4-dioxo-1-pyrimidin-2-yl-1,3,8-triazaspiro[4.5]dec-3-yl}biphenyl-4-carboxylate] as the compound, how does the IC50 read?
Answer: 0.5 to 20 nM

Question: With O=C(O)c1[nH]cnc1CN1CCC2(CC1)C(=O)N(c1ccc(-c3ccccc3)cc1)C(=O)N2c1ncccn1 [Compound 1-64, 4-[(3-biphenyl-4-yl-2,4-dioxo-1-pyrimidin-2-yl-1,3,8-triazaspiro[4.5]dec-8-yl)methyl]-1-H-imidazole-5-carboxylic acid] as the compound, how does the IC50 read?
Answer: 0.5 to 20 nM

Question: With Cc1cccnc1CN1CCC2(CC1)C(=O)N(c1ccc(-c3cccc(C(=O)O)c3)cc1)C(=O)N2c1ncccn1 [Compound 1-66, 4′-{8-[(3-methylpyridin-2-yl)methyl]-2,4-dioxo-1-pyrimidin-2-yl-1,3,8-triazaspiro[4.5]dec-3-yl}biphenyl-3-carboxylic acid] as the compound, how does the IC50 read?
Answer: 0.5 to 20 nM

Question: For Cc1cccnc1CN1CCC2(CC1)C(=O)N(c1ccc(-c3ccc(CC(=O)O)cc3)cc1)C(=O)N2c1ncccn1 [Compound 1-67, (4′-{8-[(3-methylpyridin-2-yl)methyl]-2,4-dioxo-1-pyrimidin-2-yl-1,3,8-triazaspiro[4.5]dec-3-yl}biphenyl-4-yl)acetic acid], which IC50 is on record?
Answer: 20 to 50 nM

Question: Cc1cccnc1CN1CCC2(CC1)C(=O)N(c1ccc(-c3ccccc3)cc1)C(=O)N2c1ccncn1 [Compound 1-68, 3-biphenyl-4-yl-8-[(3-methylpyridin-2-yl)methyl]-1-pyrimidin-4-yl-1,3,8-triazaspiro[4.5]decane-2,4-dione] was tested. Which IC50 did it give?
Answer: 0.5 to 20 nM

Question: For Cc1cccnc1CN1CCC2(CC1)C(=O)N(c1ccc(C3CC3C(=O)O)cc1)C(=O)N2c1ncccn1 (stereo not shown) [Compound 1-69, 2-(4-{8-[(3-methylpyridin-2-yl)methyl]-2,4-dioxo-1-pyrimidin-2-yl-1,3,8-triazaspiro[4.5]dec-3-yl}phenyl)cyclopropanecarboxylic acid], which IC50 is on record?
Answer: 0.5 to 20 nM

Question: COc1ccnc(N2C(=O)N(c3ccc(-c4ccccc4)cc3)C(=O)C23CCN(Cc2nnn[nH]2)CC3)n1 [Compound 1.39, 3-biphenyl-4-yl-1-(4-methoxypyrimidin-2-yl)-8-(1H-tetrazol-5-ylmethyl)-1,3,8-triazaspiro[4.5]decane-2,4-dione] was tested. Which IC50 did it give?
Answer: > 50 nM

same assay, conditions: read-out: PHD2 Binding Activity IC50

Question: How did the IC50 turn out when O=C(O)c1[nH]cnc1CN1CCC2(CC1)NC(=O)N(c1ccc(-c3ccccc3)cc1)C2=O [Compound 1-51, 4-[(3-biphenyl-4-yl-2,4-dioxo-1,3,8-triazaspiro[4.5]dec-8-yl)methyl]-1-H-imidazole-5-carboxylic acid] was run?
Answer: 0.5 to 20 nM

Question: For Cc1cccnc1CN1CCC2(CC1)C(=O)N(c1ccc(-c3ccccc3)cc1)C(=O)N2C [Compound 2-1, 3-biphenyl-4-yl-1-methyl-8-[(3-methylpyridin-2-yl)methyl]-1,3,8-triazaspiro[4.5]decane-2,4-dione], which IC50 is on record?
Answer: 0.5 to 20 nM
